Values of other authors, collected in paper PMC10307885, “A Phase 1/2 trial of SRA737 (a Chk1 inhibitor) administered orally in patients with advanced cancer” (British Journal of Cancer, 2023).

How the values were obtained:
patients [1] = details: cited from earlier work
patients [2] = details: cited from earlier work; remark: listed apart in the source
[3] = in combination with standard dose gemcitabine

N[C@@H]1CCCN(c2c(Br)cnc3[nH]cc(NC(=O)C4CC4)c23)C1 [GDC-0575]
partial or complete responses (patients [1]; used as a single agent): did not report partial or complete responses | Treatment-related neutropenia of NCI CTCAE Grade 3 or higher (patients [2]; [3]): 60 % of patients | treatment-related GI adverse events of all grades: diarrhoea (patients [2]; [3]): 18% | treatment-related GI adverse events of all grades: nausea (patients [2]; [3]): 43% | treatment-related GI adverse events of all grades: vomiting (patients [2]; [3]): 27%

NC(=O)Nc1cc(-c2cccc(F)c2)sc1C(=O)N[C@H]1CCCNC1 [AZD7762]
toxicity that halted development (patients [2]; intravenously administered): cardiac toxicity including a drop in ejection fraction

COc1cccc(OCCCN)c1-c1cc(Nc2cnc(C#N)cn2)n[nH]1 [prexasertib]
efficacy in squamous anal and head and neck cancers (patients [1]; intravenous, Phase 1 study): partial responses | response rate (patients [1]; patients with high-grade serous ovarian cancers): 33% | rate of diarrhoea (patients [2]; intravenous, Phase 2 study): 20% | rate of nausea (patients [2]; intravenous, Phase 2 study): 36% | rate of vomiting (patients [2]; intravenous, Phase 2 study): 27%
